Assay results: paper PMC3402541, “Guanidylation and Tail Effects in Cationic Antimicrobial Lipopeptoids” (PLoS ONE, 2012)
≈ marks a conversion by molar mass, not a printed value. Where “and” joins values, the source holds several entries; their conditions need not be identical. Identical values can stand only once.

How the values were obtained:
E.coli CAN-ICU 63074 = type: cell-based, Escherichia coli; conditions: CAN-ICU 63074, Mueller-Hinton broth, 24 hr, 37°C, without replication; for MIC E.coli in the presence of 4% bovine serum albumin: 4% BSA added, macrobroth dilution; for MIC E.coli: CLSI macrobroth dilution, 5 x 10^5 CFU/mL
Procedure, shortened: (§1)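 Testing follows CLSI macrobroth dilution with an inoculum of approximately 5 × 10^5 CFU/mL in cation-adjusted Mueller-Hinton broth. After 24 hr at 37°C the MIC was recorded, without replicate runs.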

E.coli ATCC 25922 = type: cell-based, Escherichia coli; conditions: ATCC 25922, Mueller-Hinton broth, 24 hr, 37°C, without replication; for MIC E.coli in the presence of 4% bovine serum albumin: 4% BSA added, macrobroth dilution; for MIC E.coli: CLSI macrobroth dilution, 5 x 10^5 CFU/mL
Procedure, shortened: as §1

E.coli CAN-ICU 61714 = type: cell-based, Escherichia coli; conditions: CAN-ICU 61714, Mueller-Hinton broth, 24 hr, 37°C, without replication; for MIC E.coli in the presence of 4% bovine serum albumin: 4% BSA added, macrobroth dilution; for MIC E.coli: CLSI macrobroth dilution, 5 x 10^5 CFU/mL
Procedure, shortened: as §1

E. faecalis ATCC 29212 = type: cell-based, Enterococcus faecalis; conditions: ATCC 29212, Mueller-Hinton broth, 24 hr, 37°C, without replication; for MIC E. faecalis in the presence of 4% bovine serum albumin: 4% BSA added, macrobroth dilution; for MIC E. faecalis: CLSI macrobroth dilution, 5 x 10^5 CFU/mL
Procedure, shortened: as §1

S.aureus ATCC 29213 = type: cell-based, Staphylococcus aureus; conditions: ATCC 29213, Mueller-Hinton broth, 24 hr, 37°C, without replication; for MIC S.aureus in the presence of 4% bovine serum albumin: 4% BSA added, macrobroth dilution; for MIC S.aureus: CLSI macrobroth dilution, 5 x 10^5 CFU/mL
Procedure, shortened: as §1

MRSA ATCC 33592 = type: cell-based, methicillin-resistant S. aureus; conditions: ATCC 33592, Mueller-Hinton broth, 24 hr, 37°C, without replication; for MIC MRSA in the presence of 4% bovine serum albumin: 4% BSA added, macrobroth dilution; for MIC MRSA: CLSI macrobroth dilution, 5 x 10^5 CFU/mL
Procedure, shortened: as §1

ovine erythrocytes = test: Haemolytic assay; type: cell-based, sheep; conditions: ovine erythrocytes in Tris buffered saline, 30 minutes, absorbance of supernatant at 540 nm
Procedure, shortened: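 Washed sheep erythrocytes in Tris-buffered saline exposed to compound (50 μg/mL–1 mg/mL; final 4.08 x 10^8 cells/mL) for 30 min. After centrifugation, supernatant absorbance at 540 nm gave % haemolysis; 0.5% ammonium chloride as positive control.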

MRSE CAN-ICU 61589 = type: cell-based, methicillin-resistant S. epidermidis; conditions: CAN-ICU 61589, Mueller-Hinton broth, 24 hr, 37°C, without replication; for MIC MRSE in the presence of 4% bovine serum albumin: 4% BSA added, macrobroth dilution; for MIC MRSE: CLSI macrobroth dilution, 5 x 10^5 CFU/mL
Procedure, shortened: as §1

MSSE 81388 CANWARD 2008 = type: cell-based, methicillin-susceptible S. epidermidis; conditions: 81388 CANWARD 2008, Mueller-Hinton broth, 24 hr, 37°C, without replication; for MIC MSSE in the presence of 4% bovine serum albumin: 4% BSA added, macrobroth dilution; for MIC MSSE: CLSI macrobroth dilution, 5 x 10^5 CFU/mL
Procedure, shortened: as §1

E. faecium ATCC 27270 = type: cell-based; conditions: ATCC 27270, Mueller-Hinton broth, 24 hr, 37°C, without replication; for MIC E. faecium in the presence of 4% bovine serum albumin: 4% BSA added, macrobroth dilution; for MIC E. faecium: CLSI macrobroth dilution, 5 x 10^5 CFU/mL
Procedure, shortened: as §1

S.pneumoniae ATCC 49619 = type: cell-based, Streptococcus pneumoniae; conditions: ATCC 49619, Mueller-Hinton broth, 24 hr, 37°C, without replication; for MIC S.pneumoniae in the presence of 4% bovine serum albumin: 4% BSA added, macrobroth dilution; for MIC S.pneumoniae: CLSI macrobroth dilution, 5 x 10^5 CFU/mL
Procedure, shortened: as §1

[1] = tested on: S. maltophilia CAN-ICU 62584; type: cell-based, Stenotrophomonas maltophilia; conditions: CAN-ICU 62584, Mueller-Hinton broth, 24 hr, 37°C, without replication; for MIC S. maltophilia in the presence of 4% bovine serum albumin: 4% BSA added, macrobroth dilution; for MIC S. maltophilia: CLSI macrobroth dilution, 5 x 10^5 CFU/mL
Procedure, shortened: as §1

[2] = tested on: P.aeruginosa CAN-ICU 62308; type: cell-based, Pseudomonas aeruginosa; conditions: CAN-ICU 62308, Mueller-Hinton broth, 24 hr, 37°C, without replication; for MIC P.aeruginosa in the presence of 4% bovine serum albumin: 4% BSA added, macrobroth dilution; for MIC P.aeruginosa: CLSI macrobroth dilution, 5 x 10^5 CFU/mL
Procedure, shortened: as §1

SMILES	MIC E.coli in the presence of 4% bovine serum albumin (E.coli CAN-ICU 63074)	MIC E.coli (E.coli CAN-ICU 63074)	MIC E.coli in the presence of 4% bovine serum albumin (E.coli ATCC 25922)	MIC E.coli (E.coli ATCC 25922)	MIC E.coli in the presence of 4% bovine serum albumin (E.coli CAN-ICU 61714)	MIC E.coli (E.coli CAN-ICU 61714)	MIC E. faecalis in the presence of 4% bovine serum albumin (E. faecalis ATCC 29212)	MIC E. faecalis (E. faecalis ATCC 29212)	MIC S.aureus in the presence of 4% bovine serum albumin (S.aureus ATCC 29213)	MIC S.aureus (S.aureus ATCC 29213)	MIC MRSA in the presence of 4% bovine serum albumin (MRSA ATCC 33592)	MIC MRSA (MRSA ATCC 33592)	Percent haemolysis at 100µg/mL of compound (ovine erythrocytes)	MIC MRSE in the presence of 4% bovine serum albumin (MRSE CAN-ICU 61589)	MIC MRSE (MRSE CAN-ICU 61589)	MIC MSSE in the presence of 4% bovine serum albumin (MSSE 81388 CANWARD 2008)	MIC MSSE (MSSE 81388 CANWARD 2008)	MIC E. faecium in the presence of 4% bovine serum albumin (E. faecium ATCC 27270)	MIC E. faecium (E. faecium ATCC 27270)	MIC S.pneumoniae in the presence of 4% bovine serum albumin (S.pneumoniae ATCC 49619)	other results
CCCCCCCCCCCCCCCC[N+](C)(C)C.[Cl-] [CTAC, Cetyltrimethylammonium chloride, reference compound]	512 mg/L	16 mg/L	512 mg/L	16 mg/L	512 mg/L	32 mg/L	32 mg/L	1 mg/L	32 mg/L	1 mg/L	32 mg/L	1 mg/L	77% and 77.05%	128 mg/L	2 mg/L	16 mg/L	0.5 mg/L	64 mg/L	0.5 mg/L	8 mg/L	MIC S.pneumoniae (S.pneumoniae ATCC 49619): 2 mg/L; MIC S. maltophilia in the presence of 4% bovine serum albumin [1]: 512 mg/L; MIC S. maltophilia [1]: 32 mg/L; MIC P.aeruginosa in the presence of 4% bovine serum albumin [2]: 512 mg/L; MIC P.aeruginosa [2]: 64 mg/L
NCCCCN(CC(N)=O)C(=O)CNC(=O)CN(CCCCN)C(=O)CCC(F)(F)C(F)(F)C(F)(F)C(F)(F)C(F)(F)C(F)(F)C(F)(F)C(F)(F)F [F11-NlysGNlys]	>512 mg/L	512 mg/L (≈ 636 µM)	512 mg/L	512 mg/L (≈ 636 µM)	512 mg/L	512 mg/L (≈ 636 µM)	256 mg/L	64 mg/L (≈ 79.5 µM)	256 mg/L	32 mg/L (≈ 39.8 µM)	256 mg/L	64 mg/L (≈ 79.5 µM)	4.84%	256 mg/L	32 mg/L (≈ 39.8 µM)	128 mg/L	32 mg/L (≈ 39.8 µM)	256 mg/L	64 mg/L (≈ 79.5 µM)	512 mg/L	MIC S.pneumoniae (S.pneumoniae ATCC 49619): 256 mg/L (≈ 318 µM); MIC S. maltophilia in the presence of 4% bovine serum albumin [1]: >512 mg/L; MIC S. maltophilia [1]: >512 mg/L; MIC P.aeruginosa in the presence of 4% bovine serum albumin [2]: >512 mg/L; MIC P.aeruginosa [2]: 512 mg/L (≈ 636 µM)
NCCCCN(CC(N)=O)C(=O)CN(CCCCN)C(=O)CN(CCCCN)C(=O)CCC(F)(F)C(F)(F)C(F)(F)C(F)(F)C(F)(F)C(F)(F)C(F)(F)C(F)(F)F [F11-NlysNlysNlys]	512 mg/L	128 mg/L (≈ 146 µM)	256 mg/L	64 mg/L (≈ 73.1 µM)	256 mg/L	64 mg/L (≈ 73.1 µM)	512 mg/L	64 mg/L (≈ 73.1 µM)	128 mg/L	32 mg/L (≈ 36.5 µM)	256 mg/L	32 mg/L (≈ 36.5 µM)	8.13%	256 mg/L	32 mg/L (≈ 36.5 µM)	128 mg/L	32 mg/L (≈ 36.5 µM)	256 mg/L	64 mg/L (≈ 73.1 µM)	512 mg/L	MIC S.pneumoniae (S.pneumoniae ATCC 49619): 128 mg/L (≈ 146 µM); MIC S. maltophilia in the presence of 4% bovine serum albumin [1]: >512 mg/L; MIC S. maltophilia [1]: >512 mg/L; MIC P.aeruginosa in the presence of 4% bovine serum albumin [2]: 512 mg/L; MIC P.aeruginosa [2]: 256 mg/L (≈ 292 µM)
